Patent US20080213376A1, “Medicament that is Intended for Oral Administration, Comprising a Cyclooxygenase-2 Inhibitor, and Preparation Method Thereof” (VETOQUINOL, priority 2005, published 2008)
≈ marks a conversion by molar mass, not a printed value.

Test: Solubility by HPLC in approximately 0.1N HCl medium
Assay type: physicochemical
Details: simulated gastric fluid, thermodynamic from solid, HPLC technique
Method: By way of indication, the solubility S0 of the cimicoxib powder alone and the solubility S2 of the particle agglomerate according to this second example of the invention were measured by the HPLC (high performance liquid chromatography) technique and in an approximately 0.1N HCl medium, with the following results (solubilities in milligrams/liter):
By way of indication, the solubility S5 of this particle agglomerate according to this fifth example of the invention was compared to the solubility S0 of the cimicoxib powder alone by the HPLC technique and in an approximately 0.1N HCl medium, with the following results (milligrams/liter): […]

- solubility: 3.1 µg/mL (≈ 8.12 µM)
SMILES: COc1ccc(-c2c(Cl)ncn2-c2ccc(S(N)(=O)=O)cc2)cc1F [cimicoxib powder alone, cimicoxib]
